Reference: US20100267561A1, “HERBICIDAL PYRIDAZINONE DERIVATIVES” (priority 2007, published 2010)

Tests used:
Format in all cases: in vivo
[1] = test system: Italian ryegrass (Lolium multiflorum); test: Test B pre-/postemergence plant response; details: Preemergence
How it was run: (§1)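 Preemergence and postemergence (plants 2-18 cm, 1- to 4-leaf stage) applications used test chemicals in a non-phytotoxic solvent with surfactant. Plants were held in a greenhouse 13 to 15 days, then rated visually against controls on a 0-100 scale (0 no effect, 100 complete control).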

[2] = test system: bermudagrass (Cynodon dactylon); test: Test B pre-/postemergence plant response; details: Preemergence; for Bermudagrass plant response rating: 8 g ai/ha
How it was run: as §1

[3] = test system: catchweed bedstraw (Galium aparine); test: Test B pre-/postemergence plant response; details: Preemergence; for Galium plant response rating: 8 g ai/ha
How it was run: as §1

[4] = test system: giant foxtail (Setaria faberii); test: Test B pre-/postemergence plant response; details: Preemergence
How it was run: as §1

[5] = test system: goosegrass (Eleusine indica); test: Test B pre-/postemergence plant response; details: Preemergence
How it was run: as §1

[6] = test system: johnsongrass (Sorghum halepense); test: Test B pre-/postemergence plant response; details: Preemergence
How it was run: as §1

[7] = test system: lambsquarters (Chenopodium album); test: Test B pre-/postemergence plant response; details: Preemergence
How it was run: as §1

[8] = test system: large crabgrass (Digitaria sanguinalis); test: Test B pre-/postemergence plant response; details: Preemergence
How it was run: as §1

[9] = test system: morningglory (Ipomoea coccinea); test: Test B pre-/postemergence plant response; details: Preemergence
How it was run: as §1

[10] = test system: pigweed (Amaranthus retroflexus); test: Test B pre-/postemergence plant response; details: Preemergence
How it was run: as §1

[11] = test system: soybean (Glycine max); test: Test B pre-/postemergence plant response; details: Preemergence
How it was run: as §1

[12] = test system: velvetleaf (Abutilon theophrasti); test: Test B pre-/postemergence plant response; details: Preemergence; for Velvetleaf plant response rating: scale 0 to 100
How it was run: as §1

[13] = test system: rice (Oryza sativa); test: Test B flooded paddy test plant response
How it was run: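 Paddy-water application to 2-leaf plants in pots held under 3 cm of flooding; response is a 0–100 visual control rating against controls after 13 to 15 days, and a dash marks a missing result.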

[14] = 16 g ai/ha, scale 0 to 100 (0 no effect, 100 complete control)
[15] = 31 g ai/ha, scale 0 to 100 (0 no effect, 100 complete control)
[16] = scale 0 to 100 (0 no effect, 100 complete control)
[17] = 31 g ai/ha, 0 to 100 scale, 0 no effect, 100 complete control
[18] = 62 g ai/ha, 0 to 100 scale, 0 no effect, 100 complete control
[19] = Flood (flooded paddy test), 62 g ai/ha, scale 0 to 100, 0 no effect, 100 complete control
[20] = Flood (flooded paddy test), 125 g ai/ha, scale 0 to 100, 0 no effect, 100 complete control
[21] = Flood (flooded paddy test), 250 g ai/ha, scale 0 to 100, 0 no effect, 100 complete control
[22] = Flood, 31 g ai/ha, scale 0 to 100

Cc1cc(-c2ccc(Cl)cc2)nn1-c1c(OS(=O)(=O)c2cccc3ccccc23)cnn(C)c1=O [Compound 47]
Plant response rating, Ryegrass, Italian [1, 14]: 80 | Plant response rating, Ryegrass, Italian [1, 15]: 90 | Plant response rating, Ryegrass, Italian ([1]; 62 g ai/ha, scale 0 to 100): 98 | Ryegrass, Italian plant response rating ([1]; 8 g ai/ha, scale 0 to 100): 0 | Bermudagrass plant response rating [2, 16]: 60 | Plant response rating, Bermudagrass [2, 14]: 100 | Plant response rating, Bermudagrass [2, 17]: 100 | Plant response rating, Bermudagrass ([2]; 62 g ai/ha, scale 0 to 100): 100 | Plant response rating, Galium [3, 14]: 0 | Plant response rating, Galium [3, 17]: 0 | Galium plant response rating ([3]; scale 0 to 100): 0 | Plant response rating, Foxtail, Giant [4, 14]: 98 | Plant response rating, Foxtail, Giant [4, 17]: 100 | Plant response rating, Foxtail, Giant ([4]; 62 g ai/ha, scale 0 to 100): 100 | Foxtail, Giant plant response rating ([4]; 8 g ai/ha, scale 0 to 100): 0 | Plant response rating, Goosegrass [5, 14]: 98 | Plant response rating, Goosegrass [5, 17]: 100 | Plant response rating, Goosegrass ([5]; 62 g ai/ha, scale 0 to 100): 100 | Goosegrass plant response rating ([5]; 8 g ai/ha, scale 0 to 100): 70 | Plant response rating, Johnsongrass [6, 14]: 75 | Plant response rating, Johnsongrass [6, 17]: 85 | Plant response rating, Johnsongrass ([6]; 62 g ai/ha, scale 0 to 100): 95 | Johnsongrass plant response rating ([6]; 8 g ai/ha, scale 0 to 100): 0 | Plant response rating, Lambsquarters [7, 17]: 0 | Plant response rating, Lambsquarters ([7]; 62 g ai/ha, scale 0 to 100): 65 | Lambsquarters plant response rating ([7]; 8 g ai/ha, scale 0 to 100): 0 | Plant response rating, Crabgrass, Large [8, 14]: 85 | Plant response rating, Crabgrass, Large [8, 17]: 100 | Plant response rating, Crabgrass, Large ([8]; 62 g ai/ha, scale 0 to 100): 100 | Crabgrass, Large plant response rating ([8]; 8 g ai/ha, scale 0 to 100): 0 | Plant response rating, Morningglory [9, 14]: 0 | Plant response rating, Morningglory [9, 15]: 0 | Plant response rating, Morningglory ([9]; 62 g ai/ha, scale 0 to 100): 0 | Morningglory plant response rating ([9]; 8 g ai/ha, scale 0 to 100): 0 | Plant response rating, Pigweed [10, 15]: 0 | Plant response rating, Pigweed ([10]; 62 g ai/ha, scale 0 to 100): 0 | Pigweed plant response rating ([10]; 8 g ai/ha, scale 0 to 100): 0 | Plant response rating, Soybean [11, 14]: 0 | Plant response rating, Soybean [11, 15]: 0 | Plant response rating, Soybean ([11]; 62 g ai/ha, scale 0 to 100): 0 | Soybean plant response rating ([11]; 8 g ai/ha, scale 0 to 100): 0 | Plant response rating, Velvetleaf [12, 14]: 0 | Plant response rating, Velvetleaf [12, 15]: 0 | Plant response rating, Velvetleaf [12, 18]: 0 | Velvetleaf plant response rating ([12]; 8 g ai/ha): 0 | Plant response rating, Rice [13, 19]: 0 | Plant response rating, Rice [13, 20]: 0 | Plant response rating, Rice [13, 21]: 0 | Plant response rating, Rice [13, 22]: 0

Cc1cc(-c2ccc(Cl)cc2)nn1-c1c(OS(=O)(=O)C(C)C)cnn(C)c1=O [Compound 50]
Plant response rating, Ryegrass, Italian [1, 14]: 0 | Plant response rating, Ryegrass, Italian [1, 15]: 5 | Plant response rating, Ryegrass, Italian ([1]; 62 g ai/ha, scale 0 to 100): 100 | Ryegrass, Italian plant response rating ([1]; 8 g ai/ha, scale 0 to 100): 0 | Bermudagrass plant response rating [2, 16]: 90 | Plant response rating, Bermudagrass [2, 14]: 100 | Plant response rating, Bermudagrass [2, 17]: 100 | Plant response rating, Bermudagrass ([2]; 62 g ai/ha, scale 0 to 100): 100 | Plant response rating, Galium [3, 14]: 0 | Galium plant response rating ([3]; scale 0 to 100): 0 | Plant response rating, Foxtail, Giant [4, 14]: 98 | Plant response rating, Foxtail, Giant [4, 17]: 100 | Plant response rating, Foxtail, Giant ([4]; 62 g ai/ha, scale 0 to 100): 100 | Foxtail, Giant plant response rating ([4]; 8 g ai/ha, scale 0 to 100): 20 | Plant response rating, Goosegrass [5, 14]: 80 | Plant response rating, Goosegrass [5, 17]: 98 | Plant response rating, Goosegrass ([5]; 62 g ai/ha, scale 0 to 100): 100 | Goosegrass plant response rating ([5]; 8 g ai/ha, scale 0 to 100): 0 | Plant response rating, Johnsongrass [6, 14]: 95 | Plant response rating, Johnsongrass [6, 17]: 98 | Plant response rating, Johnsongrass ([6]; 62 g ai/ha, scale 0 to 100): 100 | Johnsongrass plant response rating ([6]; 8 g ai/ha, scale 0 to 100): 70 | Plant response rating, Lambsquarters [7, 14]: 65 | Plant response rating, Lambsquarters [7, 17]: 100 | Plant response rating, Lambsquarters ([7]; 62 g ai/ha, scale 0 to 100): 100 | Lambsquarters plant response rating ([7]; 8 g ai/ha, scale 0 to 100): 0 | Plant response rating, Crabgrass, Large [8, 14]: 98 | Plant response rating, Crabgrass, Large [8, 17]: 100 | Plant response rating, Crabgrass, Large ([8]; 62 g ai/ha, scale 0 to 100): 100 | Crabgrass, Large plant response rating ([8]; 8 g ai/ha, scale 0 to 100): 60 | Plant response rating, Morningglory [9, 14]: 0 | Plant response rating, Morningglory [9, 15]: 0 | Plant response rating, Morningglory ([9]; 62 g ai/ha, scale 0 to 100): 30 | Morningglory plant response rating ([9]; 8 g ai/ha, scale 0 to 100): 0 | Plant response rating, Pigweed [10, 14]: 0 | Plant response rating, Pigweed [10, 15]: 0 | Plant response rating, Pigweed ([10]; 62 g ai/ha, scale 0 to 100): 0 | Pigweed plant response rating ([10]; 8 g ai/ha, scale 0 to 100): 0 | Plant response rating, Soybean [11, 14]: 50 | Plant response rating, Soybean [11, 15]: 100 | Plant response rating, Soybean ([11]; 62 g ai/ha, scale 0 to 100): 100 | Soybean plant response rating ([11]; 8 g ai/ha, scale 0 to 100): 0 | Plant response rating, Velvetleaf [12, 14]: 0 | Plant response rating, Velvetleaf [12, 15]: 0 | Plant response rating, Velvetleaf [12, 18]: 0 | Velvetleaf plant response rating ([12]; 8 g ai/ha): 0 | Plant response rating, Rice [13, 19]: 0 | Plant response rating, Rice [13, 20]: 0 | Plant response rating, Rice [13, 21]: 0 | Plant response rating, Rice [13, 22]: 0

Cc1cc(-c2ccc(Cl)cc2)nn1-c1c(OS(=O)(=O)c2ccc(Cl)s2)cnn(C)c1=O [Compound 55]
Plant response rating, Ryegrass, Italian [1, 15]: 90 | Plant response rating, Ryegrass, Italian ([1]; 62 g ai/ha, scale 0 to 100): 100 | Ryegrass, Italian plant response rating ([1]; 8 g ai/ha, scale 0 to 100): 60 | Ryegrass, Italian plant response rating ([1]; 16 g ai/ha, scale 0 to 100): 70 | Bermudagrass plant response rating [2, 16]: 100 | Plant response rating, Bermudagrass [2, 14]: 100 | Plant response rating, Bermudagrass [2, 17]: 100 | Plant response rating, Bermudagrass ([2]; 62 g ai/ha, scale 0 to 100): 100 | Plant response rating, Galium [3, 17]: 0 | Plant response rating, Galium ([3]; 62 g ai/ha, scale 0 to 100): 0 | Galium plant response rating ([3]; scale 0 to 100): 0 | Plant response rating, Foxtail, Giant [4, 17]: 100 | Plant response rating, Foxtail, Giant ([4]; 62 g ai/ha, scale 0 to 100): 100 | Foxtail, Giant plant response rating ([4]; 8 g ai/ha, scale 0 to 100): 90 | Foxtail, Giant plant response rating ([4]; 16 g ai/ha, scale 0 to 100): 98 | Plant response rating, Goosegrass [5, 17]: 98 | Plant response rating, Goosegrass ([5]; 62 g ai/ha, scale 0 to 100): 100 | Goosegrass plant response rating ([5]; 8 g ai/ha, scale 0 to 100): 55 | Goosegrass plant response rating ([5]; 16 g ai/ha, scale 0 to 100): 90 | Plant response rating, Johnsongrass [6, 17]: 70 | Plant response rating, Johnsongrass ([6]; 62 g ai/ha, scale 0 to 100): 95 | Johnsongrass plant response rating ([6]; 8 g ai/ha, scale 0 to 100): 0 | Johnsongrass plant response rating ([6]; 16 g ai/ha, scale 0 to 100): 15 | Plant response rating, Lambsquarters [7, 17]: 0 | Plant response rating, Lambsquarters ([7]; 62 g ai/ha, scale 0 to 100): 0 | Lambsquarters plant response rating ([7]; 8 g ai/ha, scale 0 to 100): 0 | Lambsquarters plant response rating ([7]; 16 g ai/ha, scale 0 to 100): 0 | Plant response rating, Crabgrass, Large [8, 17]: 100 | Plant response rating, Crabgrass, Large ([8]; 62 g ai/ha, scale 0 to 100): 100 | Crabgrass, Large plant response rating ([8]; 8 g ai/ha, scale 0 to 100): 20 | Crabgrass, Large plant response rating ([8]; 16 g ai/ha, scale 0 to 100): 98 | Plant response rating, Morningglory [9, 15]: 0 | Plant response rating, Morningglory ([9]; 62 g ai/ha, scale 0 to 100): 0 | Morningglory plant response rating ([9]; 8 g ai/ha, scale 0 to 100): 0 | Morningglory plant response rating ([9]; 16 g ai/ha, scale 0 to 100): 0 | Plant response rating, Pigweed [10, 15]: 0 | Plant response rating, Pigweed ([10]; 62 g ai/ha, scale 0 to 100): 0 | Pigweed plant response rating ([10]; 8 g ai/ha, scale 0 to 100): 0 | Pigweed plant response rating ([10]; 16 g ai/ha, scale 0 to 100): 0 | Plant response rating, Soybean [11, 15]: 0 | Plant response rating, Soybean ([11]; 62 g ai/ha, scale 0 to 100): 0 | Soybean plant response rating ([11]; 8 g ai/ha, scale 0 to 100): 0 | Soybean plant response rating ([11]; 16 g ai/ha, scale 0 to 100): 0 | Plant response rating, Velvetleaf [12, 15]: 0 | Plant response rating, Velvetleaf [12, 18]: 0 | Velvetleaf plant response rating ([12]; 8 g ai/ha): 0 | Velvetleaf plant response rating ([12]; 16 g ai/ha): 0 | Plant response rating, Rice [13, 19]: 0 | Plant response rating, Rice [13, 20]: 0 | Plant response rating, Rice [13, 21]: 30 | Plant response rating, Rice [13, 22]: 0
